Results taken from patent US8273700B2, “Methods and compositions for treatment of cystic fibrosis” (The Johns Hopkins University, priority 2005, dated 2012).
Entries after “also recorded” stand apart in the source; their conditions may differ. Where a SMILES comes first, the peptide text is derived from it. [ ]: non-standard residue; d: D form. Nle = CCCC[C@H](N)C(=O)O

Key:
[1] = target: T1, CFTR (Homo sapiens, UniProt P13569, DEL508-508); assay: MQAE assay of CFTR-mediated chloride transport in IB3-1 cells; format: cell-based; conditions: for MQAE fluorescence (Cl- channel activity): 10 μM forskolin or genistein, 5 μM CFTR inhibitor 172 or 14-22 amide (FIG. 5A)
T1 construct: expressed in transfected cells; host or cells: IB3-1 (ΔF508/W1282X) and CFTE (ΔF508 homozygous) cells
Method: CFTR-mediated chloride transport activity in IB3-1 cells transfected with ΔVCP, VCPQQ, Δgp78 and gp78ΔC constructs, and treated with bortezomib (1, 5 or 10 μM) was assayed by the halide-sensitive dye, MQAE. Fluorescence of MQAE is quenched by halides. Cells were grown on glass coverslips in DMEM containing 10% FBS. Cells were loaded with the dye by hypotonic shock at 37° C. for 40 min in Opti-MEM/water (1:1) containing 10 mM MQAE, washed and then mounted in a perfusion chamber for fluorescence measurements. Fluorescence was measured using a Zeiss inverted microscope coupled to a CCD camera Excitation and emission wavelengths were 350 nm and 460 nm, respectively. The stage and objective lenses were maintained at 37° C. The media was kept flowing through the perfusion chamber at 1 ml/min using a peristaltic pump. Both 10 μM forskolin and 10 μM genistein were used to induce Cl^− transport in IB3-1 cells. CFTR was inhibited with either 5 μM CFTR inhibitor 172 (12) or 14-22 amide (Calbiochem, San Diego, Calif.) to reduced cAMP mediated phosphorylation. Chloride efflux was calculated using following equations: F0/FCl=1+[Cl-]i*Ksv (1) F0=F20*(1+0.02*Ksv) (2) (dCl/dt)=F0/[Ksv*(FCl)2]*dFCl/dt (3)

[2] = system: ΔF508-CFTR; set-up: dose or concentration left out as unconfirmed; conditions: cited from earlier work
[3] = system: IL8; assay: IL8 cytokine ELISA in IL1-β induced IB3-1 cells; format: cell-based, human; conditions: for IL8 cytokine levels: IL1-β 1 ng/ml 12 hrs
[4] = system: NFκB; assay: NoShift NFκB binding assay on nuclear extracts of IB3-1 cells; format: cell-based, human; conditions: for NFκB binding (absorbance at 450 nm): IL1-β 1 ng/ml 12 hrs, transfection 24 hrs or 5 μM bortezomib / 5 μM MLN-273 6 hrs (FIG. 6C)
Method: IB3-1 cells transfected (24 hrs) with ΔVCP, ΔF508 or ΔCHOP were treated with 5 μM bortezomib (6 hrs)/5 μM MLN-273 (6 hrs)/5 mM 4PBA (24 hrs). Cells were induced with IL-β(1 ng/ml) for 12 hrs. After 24 hrs of transfection, nuclear extracts (11) were collected using NucBuster protein extraction kit (Novagen, San Diego, Calif.) and the shift in bound NFκB was measured using NoShift NFκB Binding Assay kit (Novagen, San Diego, Calif.) as specified by the manufacturer. The signal from nuclear extracts was compared with the negative control (minus extract). The specificity of protein binding was established using NFκB specific and mutant competitors. The plates were read at 450 nm on 96-well microplate reader (Molecular Devices) using SOFT-MAX-Pro software. The absorbance readings were used to determine the levels of bound NFκB. The data represents mean of three independent experiments±SD.

[5] = system: VCP; assay: Immunoblotting for VCP in IB3-1 cells; format: cell-based, human; conditions: IB3-1 cells treated with bortezomib 6 hrs (FIG. 3A)
Method: (§1) Cells were lysed directly on plates using M-PER (Pierce Biotech. Inc., Rockford, Ill.) protein lysis buffer containing protease inhibitor cocktail (Roche) after three washes with ice cold PBS. CF bronchial brushings were transferred to lysis buffer. For immunoprecipitation, 500 μg/ml (cell culture)/50 μg/ml (bronchial brushings) total protein extracts were incubated with 50 μl of protein A/G agarose beads (Santa Cruz Biotechnology Inc., Santa Cruz, Calif.) for 3 hours at 4° C. After preclearing, 5 μg of respective primary antibody or pre-immune sera (negative control) was added to each tube. After 1 hour, protein A/G agarose beads (50 μL) were added to each tube and tubes were incubated overnight at 4° C. Beads were washed once with lysis buffer (20 mM Tris-HCl [pH 7.6], 150 mM NaCl, 0.5% Triton X-100 and 10 μM phenylmethylsulfonyl fluoride [PMSF]) followed with two washes with phosphate buffer saline (PBS). The beads were suspended in Laemmli's sample buffer (30 μL) containing β-mercaptoethanol, vortexed for 1 minute, resolved by 4-10% SDS-PAGE and transferred to a 0.4-μm pore size nitrocellulose membrane. Proteins were detected using respective primary antibodies. For pulse chase experiments, CFTR immunoprecipitate was eluted with sample buffer and separated on a 4-8% SDS-PAGE, dried for 2 hours and processed for autoradiography.

[6] = system: proteasome; assay: Protease activity in IB3-1 cells; format: cell-based, human; conditions: 10 μM, 6 hrs treatment
[7] = system: Hsp40; assay: Immunoblotting for Hsp40 in IB3-1 cells; format: cell-based, human; conditions: IB3-1 cells treated with bortezomib 6 hrs (FIG. 3A)
Method: as §1

[8] = system: ΔF508-CFTR; assay: Pulse-chase metabolic labeling and CFTR immunoprecipitation in IB3-1 cells; format: cell-based, human; conditions: metabolic labeling t=2 hrs, transfection 48 hrs or 10 μM bortezomib 6 hrs (FIG. 2D)
Method: (§2) The IB3-1 (ΔF508/W1282X; low level expression of ΔF508-CFTR and no W1282X protein), CFTE (ΔF508-homozygous) and S9 (IB3-1 corrected by AAV-CFTR) cells were maintained in LHC-8 media containing 100 units/ml penicillin, 100 μg/ml streptomycin, 0.25 μg/ml amphotericin B and 10% fetal bovine serum. LHC-8 media was purchased from Biosource and other components were purchased from Gibco (Invitrogen, Carlsbad, Calif.). The cells were plated on 6-well plates and transfected with 4 μg plasmid DNA each of ΔF508/wt-CFTR-GFP and co-transfected with VCP shRNA (ΔVCP), VCPQQ construct (deficient in two AAA ATPase domains, D1 & D2), gp78 siRNA (Δgp78) or gp78ΔC (deficient in VCP binding domain) constructs using Lipofectamine 2000 (Invitrogen, Carlsbad, Calif.) as described by the manufacturer. After 48 hrs of transfection, cells were rinsed three times and starved for 1 hr in methionine- and cysteine-free Dulbecco's modified Eagle's medium (DMEM). Cells were pulse labeled with 250 μci/ml [^35S]-methionine and cysteine (ICN Biomedical, Irvine, Calif.) for 30 min and than chased in DMEM containing 10 mM methionine and 4 mM cysteine for indicated times.
(§3) Cells were lysed directly on plates using M-PER (Pierce Biotech. Inc., Rockford, Ill.) protein lysis buffer containing protease inhibitor cocktail (Roche) after three washes with ice cold PBS. […] Proteins were detected using respective primary antibodies. […]

[9] = system: IB3-1 cells; assay: Microscopic examination of cell morphology; format: cell-based, human; conditions: 10 μM bortezomib 6 hrs, phase microscopy (data not shown)
[10] = system: NF-κB; conditions: mammalian cells; cited from earlier work
[11] = system: E-selectin, ICAM-1, and VCAM-1; conditions: primary human umbilical vein endothelial cells; cited from earlier work
[12] = system: gp78; assay: Immunoblotting for gp78 in IB3-1 cells; format: cell-based, human; conditions: IB3-1 cells treated with bortezomib 6 hrs (FIG. 3A)
Method: as §1

[13] = system: wt-CFTR; assay: Pulse-chase metabolic labeling and CFTR immunoprecipitation in S9 cells; format: cell-based, human; conditions: S9 cells transfected with wt-CFTR; ΔVCP 48 hrs or 10 μM bortezomib 6 hrs (FIG. 2B)
Method: as §2, §3

[14] = system: streptococcal cell wall-induced polyarthritis; conditions: rat; cited from earlier work
[15] = system: Hsp70; assay: Immunoblotting for Hsp70 in IB3-1 cells; format: cell-based, human; conditions: IB3-1 cells treated with bortezomib 6 hrs (FIG. 3A)
Method: as §1

[16] = system: ΔF508-CFTR; assay: Pulse-chase metabolic labeling and CFTR immunoprecipitation in CFTE cells; format: cell-based, human; conditions: CFTE cells transfected with ΔF508-CFTR, 10 μM bortezomib 6 hrs, 42 hrs post-transfection (FIG. 2C)
Method: as §2, §3

[17] = transfection 24 hrs or 5 μM bortezomib / 5 μM MLN-273 6 hrs (FIG. 6B)

T1 sequence (P13569 with tags, fused parts or gaps DEL508-508): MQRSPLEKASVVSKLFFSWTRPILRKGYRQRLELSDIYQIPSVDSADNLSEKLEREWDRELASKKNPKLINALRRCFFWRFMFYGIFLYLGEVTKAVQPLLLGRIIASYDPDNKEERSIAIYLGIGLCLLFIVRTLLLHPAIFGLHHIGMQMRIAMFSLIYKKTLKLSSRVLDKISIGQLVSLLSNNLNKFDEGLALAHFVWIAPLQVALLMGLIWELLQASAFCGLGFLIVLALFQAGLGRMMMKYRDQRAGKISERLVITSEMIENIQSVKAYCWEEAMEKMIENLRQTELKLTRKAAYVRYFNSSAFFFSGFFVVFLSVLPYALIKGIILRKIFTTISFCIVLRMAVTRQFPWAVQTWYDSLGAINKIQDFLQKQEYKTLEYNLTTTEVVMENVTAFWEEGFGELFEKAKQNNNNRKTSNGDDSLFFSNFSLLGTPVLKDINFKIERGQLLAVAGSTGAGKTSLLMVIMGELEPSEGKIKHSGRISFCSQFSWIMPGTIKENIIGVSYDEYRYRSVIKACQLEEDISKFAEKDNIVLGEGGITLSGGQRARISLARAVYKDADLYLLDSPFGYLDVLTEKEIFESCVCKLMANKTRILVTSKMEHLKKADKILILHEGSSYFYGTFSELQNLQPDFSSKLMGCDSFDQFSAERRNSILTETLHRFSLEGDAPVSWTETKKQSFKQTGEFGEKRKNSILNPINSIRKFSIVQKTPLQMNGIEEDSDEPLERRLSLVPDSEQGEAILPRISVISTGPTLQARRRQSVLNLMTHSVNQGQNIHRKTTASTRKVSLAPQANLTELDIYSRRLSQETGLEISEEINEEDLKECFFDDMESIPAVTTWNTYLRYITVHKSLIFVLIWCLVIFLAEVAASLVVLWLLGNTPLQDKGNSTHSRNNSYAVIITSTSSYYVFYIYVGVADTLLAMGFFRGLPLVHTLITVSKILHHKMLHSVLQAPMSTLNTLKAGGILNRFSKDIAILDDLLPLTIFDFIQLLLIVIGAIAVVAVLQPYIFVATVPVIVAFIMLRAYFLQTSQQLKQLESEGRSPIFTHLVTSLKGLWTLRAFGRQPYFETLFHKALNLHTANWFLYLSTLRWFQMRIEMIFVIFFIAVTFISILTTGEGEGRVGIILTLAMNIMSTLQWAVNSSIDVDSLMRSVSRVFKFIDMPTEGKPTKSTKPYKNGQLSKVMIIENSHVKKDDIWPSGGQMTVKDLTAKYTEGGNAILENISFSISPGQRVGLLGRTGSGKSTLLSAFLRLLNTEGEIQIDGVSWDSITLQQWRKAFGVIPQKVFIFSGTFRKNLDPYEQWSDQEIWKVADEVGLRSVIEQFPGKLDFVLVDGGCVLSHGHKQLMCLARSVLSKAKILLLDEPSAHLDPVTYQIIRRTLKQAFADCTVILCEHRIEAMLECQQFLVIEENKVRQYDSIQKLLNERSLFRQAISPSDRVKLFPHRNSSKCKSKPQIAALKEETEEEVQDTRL

## O=C(O)c1ccc(/C=C2\SC(=S)N(c3cccc(C(F)(F)F)c3)C2=O)cc1 [172 inhibitor]
[1]; IB3-1 cells
  MQAE fluorescence (Cl- channel activity): block the cAMP mediated cystic fibrosis transmembrane receptor (CFTR) activity

## CCCC[C@@H](C=O)NC(=O)[C@H](CC(C)C)NC(=O)[C@H](CC(C)C)NC(C)=O [ALLN, N-acetyl-leucylleucyl-Norleucinal] (Ac-Leu-Leu-[Nle]-aldehyde)
[2]
  ΔF508-CFTR degradation: blocks ΔF508-CFTR it degradation

## CC(C)C[C@H](NC(=O)[C@H](Cc1cccc2ccccc12)NC(=O)N1CCOCC1)B(O)O [MLN273]
[3]; [17]
  IL8 cytokine levels: significantly inhibited
[4]
  NFκB binding (absorbance at 450 nm): significantly inhibited

## CC(C)C[C@H](NC(=O)[C@H](Cc1ccccc1)NC(=O)c1cnccn1)B(O)O [bortezomib, pyrazylcarbonyl-Phe-Leu-boronate]
[5]
  VCP protein level: inhibition
[5]; listed as Bortezomib
  VCP protein level: inhibited
[6]
  protease activity: partial inhibition
[7]
  Hsp40 protein level: no change
[3]; [17]
  IL8 cytokine levels: significantly inhibited
[3]; transfection 48 hrs or 5 μM bortezomib 6 hrs (FIG. 6A)
  IL8 cytokine levels: significantly downregulated; also recorded: significantly inhibited
[3]; ΔCHOP 24 hrs plus 5 μM bortezomib 6 hrs, IL1-β 1 ng/ml (FIG. 6B)
  combined effect of ΔCHOP and bortezomib on IL8 down regulation: synergistic effect
[8]
  level of immature B form of ΔF508-CFTR: partially rescues
  rescue of ΔF508-CFTR from ERAD: partially rescued ΔF508-CFTR
[1]; IB3-1 cells transfected with ΔF508-CFTR, bortezomib 5 or 10 μM for 6 hrs, bars in mM/s (FIG. 5C)
  genistein mediated chloride efflux: augmented chloride efflux; also recorded: significantly induced
[1]; IB3-1 cells, with genistein (FIG. 5C)
  combined effect with genistein on rescue of functional ΔF508-CFTR: synergistic effect
[9]
  morphology of treated vs untreated monolayers: no difference in morphology
[4]
  NFκB binding (absorbance at 450 nm): significantly inhibited
[4]; ΔCHOP 24 hrs plus 5 μM bortezomib 6 hrs, IL1-β 1 ng/ml (FIG. 6C)
  combined effect of ΔCHOP and bortezomib on NFκB binding: synergistic effect
[10]
  NF-κB activation and NF-κB-dependent gene expression: inhibit NF-κB activation and NF-κB-dependent gene expression
[11]
  TNF-α-induced gene expression of cell-surface adhesion molecules: inhibits
[12]
  gp78 protein level: no change
[13]
  wt-CFTR maturation and stability, band B to band C: substantial amounts of mature band C; also recorded: stabilizes the wild type-CFTR mature (C-form)
[14]
  T cell-dependent chronic phase of the inflammatory response: markedly inhibited
  neutrophil-predominant acute phase of the inflammatory response: attenuated
[15]
  Hsp70 protein level: Induction
[15]; listed as Bortezomib
  Hsp70 protein level: induced
[16]
  ΔF508-CFTR accumulation and rescue: significant increase in the accumulation and stabilization of the B form; also recorded: rescues the ΔF508-CFTR mature (C-form) by 2 hrs

## O=c1c(-c2ccc(O)cc2)coc2cc(O)cc(O)c12 [genistein]
[1]; IB3-1 cells
  MQAE fluorescence (Cl- channel activity): significant change
[1]; IB3-1 cells, listed as Genistein
  MQAE fluorescence (Cl- channel activity): significant increase
